# Values of other authors in patent US7388012B2, “(Hydrazido)(amino)thiophene compounds” (OSI Pharmaceuticals, Inc., priority 2004, dated 2008).
# Counter-ions that a name gives are not always drawn.
# How the values were obtained:
# [1] = tested on: MO7e human leukemia cells
# [2] = tested on: MO7e human leukemia cells; remark: listed apart in the source
structure (smiles),measurement,setting,value
"Cc1ccc(NC(=O)c2ccc(CN3CCN(C)CC3)cc2)cc1Nc1nccc(-c2cccnc2)n1 [Gleevec, imatinib mesylate]",Kit ligand-stimulated growth of MO7e human leukemia cells,[1]; Kit ligand-stimulated,inhibited
same,apoptosis of MO7e human leukemia cells,[1]; Kit ligand-stimulated conditions,induces apoptosis
same,GM-CSF stimulated growth of MO7e human leukemia cells,[2],not affected
